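Dose response: 5 concentrations. Exposure: 48 h. Format: 96-well plates. Endpoint: linear interpolation; highest concentration if not reached. GI50 = concentration required for 50% inhibition of growth. TGI denotes the concentration required for complete inhibition of growth.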
Assays:
Experiment in all cases: inhibition of tumour cell growth, NCI panel, 48 h
[1] = test system: KM12 colon
[2] = test system: UACC-62 melanoma
[3] = test system: BT-549 breast
[4] = test system: TK-10 renal
[5] = test system: MALME-3M melanoma
[6] = test system: U251 CNS
[7] = test system: 786-0 renal
[8] = test system: SW-620 colon
[9] = test system: COLO 205 colon
[10] = test system: NCI-H226 lung

| SMILES | TGI [1] | TGI [2] | TGI [3] | TGI [4] | TGI [5] | TGI [6] | TGI [7] | TGI [8] | GI50 [1] | GI50 [2] | GI50 [3] | GI50 [9] | TGI [9] | GI50 [4] | GI50 [6] | GI50 [7] | GI50 [10] | TGI [10] | GI50 [8] | GI50 [5] |
| --- | --- | --- | --- | --- | --- | --- | --- | --- | --- | --- | --- | --- | --- | --- | --- | --- | --- | --- | --- | --- |
| c1ccc2sc(SCCSc3nc4ccccc4s3)nc2c1 | > 100 µM | > 100 µM | > 100 µM | > 100 µM | > 100 µM | > 100 µM | > 100 µM | > 100 µM | – | – | – | – | – | – | – | – | – | – | – | – |
| Cc1cc(S(=O)(=O)Nc2nc3ccccc3o2)c(SCc2ccccc2)cc1Cl | 43.4 µM | 79.5 µM | 79.3 µM | 90.7 µM | – | 31 µM | 47.2 µM | 56.4 µM | 18.4 µM | 28.7 µM | 30.5 µM | 22.1 µM | 51.1 µM | 28.6 µM | 16.1 µM | 20.8 µM | 26.4 µM | 72.9 µM | 20.6 µM | – |
| NNC(=S)N/N=C(\C(=O)Nc1cccc(O)c1)C1C(=O)NC(=S)NC1=O | > 100 µM | > 100 µM | > 100 µM | > 100 µM | > 100 µM | > 100 µM | > 100 µM | > 100 µM | – | – | – | – | – | – | – | – | – | > 100 µM | – | – |
| CCSCC1CC(O)(c2ccccc2)CC(c2ccc(F)cc2)O1 (stereo unspecified) | 3.67 µM | 3.2 µM | 3.45 µM | 6.13 µM | 3.51 µM | 3.3 µM | 4.53 µM | 4.42 µM | 1.88 µM | 1.42 µM | 1.6 µM | 1.53 µM | 2.87 µM | 2.16 µM | 1.63 µM | 2.02 µM | – | – | 1.98 µM | 1.56 µM |
| Cc1cc(O)c(=O)cc2c1C[C@H]1CC(C)(C)/C=C/C[C@]3(C)Oc4cc(=O)c(O)cc(C)c4C[C@H]3C[C@H](O)[C@@]1(C)O2 | > 100 µM | 0.157 µM | 4.55 µM | 9.95 µM | 0.544 µM | – | 15.4 µM | > 100 µM | < 0.01 µM | 0.0296 µM | 0.0319 µM | – | – | 0.0211 µM | – | 0.0327 µM | 0.0541 µM | 13.6 µM | < 0.01 µM | 0.0282 µM |
| Cc1nc([P+](c2ccccc2)(c2ccccc2)c2ccccc2)c(Sc2sc(-c3ccccc3)nc2[P+](c2ccccc2)(c2ccccc2)c2ccccc2)o1 | 3.35 µM | 3.67 µM | 6.24 µM | 7.63 µM | 7.13 µM | 4.03 µM | 11.2 µM | 2.85 µM | 1.39 µM | 1.51 µM | 1.28 µM | – | – | 2.09 µM | 0.344 µM | 2.34 µM | – | – | 0.637 µM | 1.36 µM |
| Cc1nc2ccc(Nc3nc(Cl)nc(N4CCOCC4)n3)cc2n1Cc1ccccc1 | > 100 µM | 22.9 µM | 29.4 µM | > 100 µM | 24.5 µM | – | > 100 µM | > 100 µM | > 100 µM | 3.43 µM | 2.89 µM | – | – | 35.8 µM | – | 11.7 µM | 7.88 µM | 48.9 µM | 3.1 µM | 5.24 µM |
| O=C1CSCc2sccc21 | > 100 µM | > 100 µM | > 100 µM | > 100 µM | – | > 100 µM | > 100 µM | > 100 µM | – | – | – | – | > 100 µM | – | – | – | – | > 100 µM | – | – |
| Fc1cc2[nH]ncc2c2c3c(c(-c4cn[nH]c4C(F)(F)F)nc12)CCCC3 | 15.3 µM | 3 µM | 2.96 µM | – | 5.41 µM | > 100 µM | 7.16 µM | > 100 µM | 2.13 µM | 1.31 µM | 1.38 µM | 1.55 µM | 4.32 µM | – | 2.57 µM | 2 µM | 2.64 µM | > 100 µM | 1.36 µM | 1.91 µM |
| COC[C@@H](N=C1NC(=O)/C(=C/c2ccc3ncccc3c2)S1)c1ccccc1 | > 25 µM | > 25 µM | > 25 µM | – | > 25 µM | > 25 µM | > 25 µM | > 25 µM | 10.8 µM | 11.6 µM | 7.85 µM | 10.8 µM | > 25 µM | – | 4.32 µM | 10.2 µM | 6.88 µM | > 25 µM | 8.91 µM | > 23.1 µM |
| COc1cc(Nc2nc3cc(N)cc(N)c3nc2-c2ccccc2)cc(OC)c1OC | 29.5 µM | 31.8 µM | 33.6 µM | 66.5 µM | 28.2 µM | > 100 µM | 40.3 µM | > 100 µM | 10.6 µM | 13.6 µM | 16.8 µM | 14 µM | 27.1 µM | 23.9 µM | 24.6 µM | 14.6 µM | – | – | 24.1 µM | 13 µM |
| CCOC(=O)/C(=C/N1CCN(C(=O)c2ccco2)C1=S)C(=O)c1ccccc1 | > 50 µM | 17.5 µM | 25 µM | 34 µM | 48.4 µM | > 50 µM | 45.2 µM | 24 µM | 10.1 µM | 7.64 µM | 8.96 µM | 19.2 µM | > 50 µM | 12.4 µM | 11.5 µM | 12.9 µM | – | – | 7.93 µM | 13.3 µM |
| COc1ccc(/C=C(/C#N)C(N)=O)c(OC)c1 | > 100 µM | > 100 µM | > 100 µM | > 100 µM | – | > 100 µM | > 100 µM | > 100 µM | – | – | – | – | > 100 µM | – | – | – | – | > 100 µM | – | – |

Reference: PubChem BioAssay (NCI)
